Patent publication US5908851A (priority 1995, dated 1999)
Like-named read-outs stand apart in the source and are kept apart here.

Tests used:
[1] = target: T1, recombinant matrilysin (PUMP-1) (Homo sapiens, UniProt P09237); test: Inhibition of recombinant matrilysin (PUMP-1, MMP-7), 14C-acetylated casein; type: biochemical; conditions: 37° C., 16 hours, pH 7.6; read-out: In vitro inhibitory activity IC50, Matrilysin (MMP-7)
T1 sequence (P09237 95-267): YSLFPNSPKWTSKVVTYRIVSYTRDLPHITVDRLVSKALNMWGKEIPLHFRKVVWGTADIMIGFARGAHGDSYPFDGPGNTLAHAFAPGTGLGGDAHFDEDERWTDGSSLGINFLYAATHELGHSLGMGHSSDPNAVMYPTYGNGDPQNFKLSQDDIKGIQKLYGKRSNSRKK

72 kDa gelatinase [2] = target: T2, 72 kDa gelatinase (Homo sapiens, UniProt P08253); conditions: read-out: In vitro inhibitory activity IC50, Gelatinase A (MMP-2); 37° C., 16 hours; enzyme from RPMI-7951 cells
T2 sequence (P08253 110-660): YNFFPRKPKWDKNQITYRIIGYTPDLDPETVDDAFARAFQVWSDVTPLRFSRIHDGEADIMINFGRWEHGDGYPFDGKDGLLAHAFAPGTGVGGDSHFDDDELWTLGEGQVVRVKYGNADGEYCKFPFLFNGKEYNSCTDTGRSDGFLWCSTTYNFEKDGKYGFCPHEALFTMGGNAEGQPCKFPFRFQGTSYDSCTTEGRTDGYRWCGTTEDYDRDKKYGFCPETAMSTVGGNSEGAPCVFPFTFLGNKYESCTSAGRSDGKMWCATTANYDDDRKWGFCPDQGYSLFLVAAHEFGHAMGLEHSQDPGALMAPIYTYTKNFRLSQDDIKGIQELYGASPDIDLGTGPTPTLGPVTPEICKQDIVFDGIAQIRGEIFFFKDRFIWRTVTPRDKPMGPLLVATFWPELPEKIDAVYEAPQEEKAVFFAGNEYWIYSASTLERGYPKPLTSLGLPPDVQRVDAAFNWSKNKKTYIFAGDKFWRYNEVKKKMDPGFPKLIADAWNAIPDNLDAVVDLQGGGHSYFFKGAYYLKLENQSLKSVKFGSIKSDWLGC

[3] = target: T3, human fibroblast collagenase (Homo sapiens, UniProt P03956); test: Inhibition of human fibroblast collagenase (MMP-1), 14C-acetylated collagen; type: biochemical; conditions: for inhibition at 100 µM: read-out: % I (inhibition), Fib. Collag. (MMP-1); for IC50: 37° C., 16 hours, pH 7.5, read-out: In vitro inhibitory activity IC50, Fib. Collag. (MMP-1)
T3 sequence (P03956 100-469): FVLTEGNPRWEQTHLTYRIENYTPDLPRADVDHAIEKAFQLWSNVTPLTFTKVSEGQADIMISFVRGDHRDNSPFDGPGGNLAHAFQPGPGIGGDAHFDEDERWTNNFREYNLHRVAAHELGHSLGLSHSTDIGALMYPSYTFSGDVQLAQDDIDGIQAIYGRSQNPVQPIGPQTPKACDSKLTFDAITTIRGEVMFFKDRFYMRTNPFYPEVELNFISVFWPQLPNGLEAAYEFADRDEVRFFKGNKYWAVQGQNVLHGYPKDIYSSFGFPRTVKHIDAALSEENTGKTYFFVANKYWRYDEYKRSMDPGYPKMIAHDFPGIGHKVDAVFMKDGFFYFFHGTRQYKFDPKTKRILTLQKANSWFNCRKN
Excerpt: The samples were centrifuged to sediment undigested collagen, and an aliquot of the radioactive supernatant removed for assay on a scintillation counter as a measure of hydrolysis.

stromelysin-1 [4] = target: T4, stromelysin-1 (Homo sapiens, UniProt P08254); conditions: read-out: In vitro inhibitory activity IC50, Stromelysin-1 (MMP-3); 37° C., 16 hours, pH 7.5
Excerpt: (§1) The casein was acetylated ^14 C casein prepared by the method of Cawston et al. (ibid.).

stromelysin-1 [5] = target: T4, stromelysin-1; test: biochemical
Excerpt: as §1

72 kDa gelatinase [6] = target: T2, 72 kDa gelatinase; test: biochemical

T4 sequence (P08254 100-477, species assumed): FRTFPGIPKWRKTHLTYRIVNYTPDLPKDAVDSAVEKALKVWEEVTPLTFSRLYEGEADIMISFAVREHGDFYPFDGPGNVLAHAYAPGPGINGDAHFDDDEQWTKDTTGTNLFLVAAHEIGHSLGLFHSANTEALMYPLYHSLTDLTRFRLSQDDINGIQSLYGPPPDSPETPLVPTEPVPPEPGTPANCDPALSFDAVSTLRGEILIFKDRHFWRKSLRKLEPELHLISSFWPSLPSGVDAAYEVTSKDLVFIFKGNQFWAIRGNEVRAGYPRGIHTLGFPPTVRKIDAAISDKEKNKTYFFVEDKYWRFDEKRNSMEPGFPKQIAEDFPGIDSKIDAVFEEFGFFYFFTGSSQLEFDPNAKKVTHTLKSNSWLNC

Row | SMILES | IC50 [1] | IC50 (72 kDa gelatinase [2]) | inhibition at 100 µM [3] | IC50 (stromelysin-1 [4]) | IC50 (stromelysin-1 [5]) | IC50 (72 kDa gelatinase [6]) | IC50 [3] | inhibition at 100 µM (72 kDa gelatinase [6]; read-out: % I (inhibition), Gelatinase A (MMP-2))
1 | C=CC[C@H](C(=O)NO)[C@@H](CC(C)C)C(=O)N[C@H](C(=O)NC)C(C)(C)C [Comparator 2, 2S-Allyl-N^4-(2,2-dimethyl-1S-methylcarbamoyl-propyl)-N^1-hydroxy-3R-isobutyl-succinamide, reference compound] | 20 nM |  |  |  |  |  |  | 
2 | CC(C)(C)[C@H](NC(=O)[C@H](C/C=C/c1ccccc1)[C@H](O)C(=O)NO)C(=O)NC(c1ccccc1)c1ccccc1 [Example 9, N^4-[1S-(Benzhydryl-carbamoyl)-2,2-dimethyl-propyl]-2S,N^1-dihydroxy-3R-(3-phenyl-allyl)-succinamide] | 500 nM | 40000 nM | 30% | 800 nM |  |  |  | 
3 | C=CC[C@H](C(=O)NO)[C@@H](CC(C)C)C(=O)N[C@H](C(=O)NC(c1ccccc1)c1ccccc1)C(C)(C)C [Example 12, 2S-Allyl-N^4-[1S-(benzhydryl-carbamoyl)-2,2-dimethyl-propyl]-N^1-hydroxy-3R-isobutyl-succinamide] | 30 nM |  |  |  | 80 nM | 40000 nM | 800 nM | 
4 | CO[C@H](C(=O)NO)[C@@H](CC(C)C)C(=O)N[C@H](C(=O)NC(c1ccccc1)c1ccccc1)C(C)(C)O [Example 8] | 9 nM |  |  |  | 20 nM | 1000 nM | 700 nM | 
5 | CC(C)C[C@@H](C(=O)N[C@H](C(=O)NC1c2ccccc2-c2ccccc21)C(C)(C)C)[C@H](O)C(=O)NO [Example 2, N^4-[1S-(9H-Fluoren-9-ylcarbamoyl)-2,2-dimethyl-propyl]-2S,N^1-dihydroxy-3R-isobutyl-succinamide] | 70 nM |  |  |  | 200 nM | 17000 nM | 2000 nM | 
6 | CC(C)C[C@@H](C(=O)N[C@H](C(=O)NC(c1ccccc1)c1ccc(Cl)cc1)C(C)(C)C)[C@H](O)C(=O)NO (stereo partly drawn) [Example 3, N^4-(1S-{[(4-Chloro-phenyl)-phenyl-methyl]-carbamoyl}-2,2-dimethyl-propyl)-2R,N^1-dihydroxy-3R-isobutyl-succinamide] | 10 nM |  |  |  | 200 nM | 2000 nM | 400 nM | 
7 | CC(C)C[C@@H](C(=O)N[C@H](C(=O)NC(c1ccccc1)c1ccc(F)cc1)C(C)(C)C)[C@H](O)C(=O)NO (stereo partly drawn) [Example 4, N^4-(1S-{[(4-Fluoro-phenyl)-phenyl-methyl]-carbamoyl}-2,2-dimethyl-propyl)-2S,N^1-dihydroxy-3-isobutyl-succinamide] | 9 nM |  |  |  | 60 nM | 500 nM | 400 nM | 
8 | CC(C)C[C@@H](C(=O)N[C@H](C(=O)NC(c1ccccn1)c1ccccn1)C(C)(C)C)[C@H](O)C(=O)NO [Example 11, N^4 -{1S-[(Di-pyridin-2-yl-methyl)-carbamoyl]-2,2-dimethyl-propyl}-2S,N^1-dihydroxy-3R-isobutyl-succinamide] | 20 nM |  |  |  | 200 nM | 1000 nM | 300 nM | 
9 | CO[C@H](C(=O)O)[C@@H](CC(C)C)C(=O)N[C@H](C(=O)NC(c1ccccc1)c1ccccc1)C(C)(C)O [Example 7, N^4-[1S-(Benzhydryl-carbamoyl)-2-hydroxy-2-methyl-propylcarbamoyl]-2S-methoxy-5R-methyl-hexanoic acid] |  |  | 40% |  | 20000 nM |  |  | 50%
10 | CC(C)C[C@@H](C(=O)N[C@H](C(=O)NC(c1ccccc1)c1ccccc1)C(C)(C)O)[C@H](O)C(=O)NO [Example 6, N^4-[1S-(Benzhydryl-carbamoyl)-2-hydroxy-2-methyl-propyl]-2S, N^1-dihydroxy-3R-isobutyl-succinamide] | 15 nM |  |  |  | 200 nM | 600 nM | 2000 nM | 
11 | CC(C)(C)[C@H](NC(=O)[C@H](CCCc1ccccc1)[C@H](O)C(=O)NO)C(=O)NC(c1ccccc1)c1ccccc1 [Example 10, N^4-[1S-(Benzhydryl-carbamoyl)-2,2-dimethyl-propyl]-2S,N^1-dihydroxy-3R-(3-phenyl-propyl)-succinamide] | 1000 nM |  |  |  |  |  | 10000 nM | 
12 | CC(C)C[C@@H](C(=O)N[C@H](C(=O)NC(c1ccccc1)c1ccccc1F)C(C)(C)C)[C@H](O)C(=O)NO (stereo partly drawn) [Example 5, N^4-(1S-{[(2-Fluoro-phenyl)-phenyl-methyl]-carbamoyl}-2,2-dimethyl-propyl)-2S,N^1-dihydroxy-3R-isobutyl-succinamide] | 9 nM |  |  |  | 100 nM | 600 nM | 700 nM | 
13 | CC(C)C[C@@H](C(=O)N[C@H](C(=O)NC(c1ccccc1)c1ccccc1)C(C)(C)C)[C@H](O)C(=O)NO [Example 1, N^4-[1S-(Benzhydryl-carbamoyl)-2,2-dimethyl-propyl]-2S,N^1-dihydroxy-3R-isobutyl-succinamide] | 4 nM |  |  |  | 50 nM | 3000 nM | 600 nM | 
14 | C=CC[C@H](C(=O)NO)[C@@H](CCCCCCCC)C(=O)N[C@H](C(=O)NC(c1ccccc1)c1ccccc1)C(C)(C)C [Example 13, 2S-Allyl-N^4-[1S-(benzhydryl-carbamoyl)-2,2-dimethyl-propyl]-N^1-hydroxy-3R-octyl-succinamide] | 400 nM |  |  |  | 60 nM | 20000 nM | 30000 nM | 
